System: HEK293 cells
Assay: HEK293 VLCFA-LPC IC50 determination (13C-labeled C26:0 LPC by UHPLC/MS)
Format: cell-based, human
Settings: Homo sapiens, HEK293, HEK293 cells; average of one or more replicates; read-out: Average HEK293 IC50
Procedure: HEK293 cells were treated with compounds, such as those listed in Tables A-E of Example 1, using the representative manual protocols described below. The protocols below were also adapted to a semi-automated protocol using standard methods in the art.
Cell Culture Growth Conditions:
HEK293 cells were maintained in FreeStyle F17 media (Gibco # A13835) supplemented with PenStrep (1%, Gibco #15070-063), Glutamax (2%, Gibco #35050-061), and Pluronic (0.1%, Gibco #24040-032) (“supplemented media”). Suspension cultures were grown in disposable Erlenmeyer flasks at about 120 rpm, 37° C., 5% CO2, and 80% humidity. Cell densities were kept between about 0.5 and 3 million cells per mL, in about 50-200 mL per flask.
Treatment of Cells with Compounds Provided Herein:
The cells were treated with compounds using either a total of 900 uL cell media volume (high-volume assay) or a total of 200 uL cell media volume (low-volume assay). In the high volume assay, 450 μL of supplemented media plus 13C-acetate (1.0 mg/mL, Sigma Aldrich #282014) were added to 0.5 μL of a compound (such as those in Tables A-E) in DMSO in a polypropylene v-bottom plate (Costar #3363) in 1 of 3 dilution schemes. The contents of each well were mixed and transferred to a sterile polypropylene deep-well v-bottom plate (Costar #3960). 450 μL of cultured HEK293 cells in supplemented media at a density of 1.0 million cells/mL was added to each well. In the low volume assay, 100 μL of supplemented media plus 13C-acetate (1.0 mg/mL, Sigma Aldrich #282014) were added to either 0.1 μL or 1.0 uL of a compound (such as those in Tables A-E) in DMSO in a polypropylene v-bottom plate (Costar #3363) in 1 of 3 dilution schemes. 100 μL of cultured HEK293 cells in supplemented media at a density of 1.0 million cells/mL was added to each well. The high volume and low volume plates were sealed with either AirPore Tape Sheets (Qiagen #19571) or Duetz plate covers to control evaporation and placed into a shaking incubator at 225 rpm, 37° C., 5% CO2, and 80% humidity for 48 hours. For both the high and low volume assays the 3 dilution schemes used were as follows:
Following incubation, treated cells were harvested by centrifugation at 1690×g for 10 minutes. In the high volume assay 200 uL treated cells were transferred to a polypropylene v-bottom plate (Costar #3363) prior to centrifugation. In the low volume assay the incubation plate was centrifuged directly, without a transfer step. The supernatant was then discarded and the analytes were extracted using 1 of 2 different extraction schemes. In the first scheme, the cell pellet was visibly broken up by mixing the cell pellet up and down in 100 μL of hexane/isopropanol (60:40) 20 times. The resulting mixture was transferred to a 0.45 μm Durapore membrane (Millipore #MSH VN4510) atop a polypropylene v-bottom plate (Costar #3363) and filtered by centrifugation at 1690×g for 5 minutes. 120 μL of n-butanol containing 10 nM C13:0 lysophosphatidylcholine was added to the filtrate as an injection control standard, then the entire volume was transferred to a new Durapore membrane/v-bottom plate. In the second scheme, the cell pellet was visibly broken up by mixing the cell pellet up and down in 180 μL of methanol containing 10 nM C13:0 lysophosphatidylcholine 20 times. The resulting mixture was transferred to a 0.45 μm Durapore membrane (Millipore #MSH VN4510) atop a polypropylene v-bottom plate and filtered by centrifugation at 1690×g for 5 minutes. In both schemes, the plates were then sealed with pierceable capmats (Micronic MP53017) and stored at −20 OC until analyzed.
UHPLC/Mass Spectrometry Readout:
The filtered organic extraction was analyzed with a 1290 Agilent Infinity Series UHPLC coupled to an ABI Sciex QTrap 6500 mass spectrometer. […]

Row | Compound | IC50 [nM]
1 | O=C(Nc1ccn(-c2ccccc2)n1)C1(c2ccccc2F)CC1 [Compound 22, 1-(2-fluorophenyl)-N-(1-phenylpyrazol-3-yl)cyclopropanecarboxamide] | 12
2 | O=C(Nc1ccn(-c2ccccc2)n1)C1(c2ccc(Cl)cc2)CC1 [Compound 23, 1-(4-chlorophenyl)-N-(1-phenylpyrazol-3-yl)cyclopropanecarboxamide] | 830
3 | O=C(Nc1ccn(-c2ccccc2)n1)C1(c2ccccc2Cl)CC1 [Compound 24, 1-(2-chlorophenyl)-N-(1-phenylpyrazol-3-yl)cyclopropanecarboxamide] | 41
4 | COc1ccc(C2(C(=O)Nc3ccn(-c4ccccc4)n3)CC2)cc1 [Compound 25, 1-(4-methoxyphenyl)-N-(1-phenylpyrazol-3-yl)cyclopropanecarboxamide] | 3600
5 | COc1cccc(C2(C(=O)Nc3ccn(-c4ccccc4)n3)CC2)c1 [Compound 26, 1-(3-methoxyphenyl)-N-(1-phenylpyrazol-3-yl)cyclopropanecarboxamide] | 270
6 | C[C@@H](C(=O)Nc1ccn(-c2ccccc2)n1)c1ccccc1 [Compound 27, (2R)-2-phenyl-N-(1-phenylpyrazol-3-yl)propanamide] | 210
7 | CC[C@@H](C(=O)Nc1ccn(-c2ccccc2)n1)c1ccccc1 [Compound 28, (2R)-2-phenyl-N-(1-phenylpyrazol-3-yl)butanamide] | 580
8 | O=C(Nc1ccn(-c2ccccc2)n1)C1(c2cc(F)cc(C(F)(F)F)c2)CC1 [Compound 29, 1-[3-fluoro-5-(trifluoromethyl)phenyl]-N-(1-phenylpyrazol-3-yl)cyclopropanecarboxamide] | 1900
9 | CC(C)(C(=O)Nc1ccn(-c2ccccc2)n1)c1ccccc1 [Compound 30, 2-methyl-2-phenyl-N-(1-phenyl-1H-pyrazol-3-yl)propanamide] | 320
10 | CC(C)C(C(=O)Nc1ccn(-c2ccccc2)n1)c1ccccc1 (stereo not drawn) [Compound 31, 3-methyl-2-phenyl-N-(1-phenylpyrazol-3-yl)butanamide] | > 2000
11 | Cc1cccc(C2(C(=O)Nc3ccn(-c4ccccc4)n3)CC2)c1 [Compound 32, 1-(m-tolyl)-N-(1-phenylpyrazol-3-yl)cyclopropanecarboxamide] | 650
12 | CCOc1ccc(C2(C(=O)Nc3ccn(-c4ccccc4)n3)CC2)cc1 [Compound 33, 1-(4-ethoxyphenyl)-N-(1-phenylpyrazol-3-yl)cyclopropanecarboxamide] | 990
13 | O=C(Nc1ccn(-c2ccccc2)n1)C1(c2ccccc2)CCCC1 [Compound 34, 1-phenyl-N-(1-phenylpyrazol-3-yl)cyclopentanecarboxamide] | 2100
14 | O=C(Nc1ccn(-c2ccccc2)n1)C1(c2ccccc2)CCC1 [Compound 35, 1-phenyl-N-(1-phenylpyrazol-3-yl)cyclobutanecarboxamide] | 330
15 | Cc1cc(C)cc(C2(C(=O)Nc3ccn(-c4ccccc4)n3)CC2)c1 [Compound 36, 1-(3,5-dimethylphenyl)-N-(1-phenylpyrazol-3-yl)cyclopropanecarboxamide] | > 5000
16 | O=C(Cc1cccs1)Nc1ccn(-c2ccccc2)n1 [Compound 37, N-(1-phenylpyrazol-3-yl)-2-(2-thienyl)acetamide] | 64
17 | O=C(Cc1ccncc1)Nc1ccn(-c2ccccc2)n1 [Compound 38, N-(1-phenylpyrazol-3-yl)-2-(4-pyridyl)acetamide] | > 5000
18 | O=C(Cc1cccnc1)Nc1ccn(-c2ccccc2)n1 [Compound 39, N-(1-phenylpyrazol-3-yl)-2-(3-pyridyl)acetamide] | > 5000
19 | O=C(Cc1ccccn1)Nc1ccn(-c2ccccc2)n1 [Compound 40, N-(1-phenylpyrazol-3-yl)-2-(2-pyridyl)acetamide] | 1500
20 | O=C(Cc1ccccc1)Nc1ccn(-c2ccccc2)n1 [Compound 41, 2-phenyl-N-(1-phenylpyrazol-3-yl)acetamide] | 73

Row | Compound | IC50 [nM]
21 | Cc1ccc(CC(=O)Nc2ccn(-c3ccccc3)n2)cc1 [Compound 42, N-(1-phenylpyrazol-3-yl)-2-(p-tolyl)acetamide] | 710
22 | Cc1cccc(CC(=O)Nc2ccn(-c3ccccc3)n2)c1 [Compound 43, 2-(m-tolyl)-N-(1-phenylpyrazol-3-yl)acetamide] | 1900
23 | Cc1ccccc1CC(=O)Nc1ccn(-c2ccccc2)n1 [Compound 44, 2-(o-tolyl)-N-(1-phenylpyrazol-3-yl)acetamide] | 240
24 | COc1ccc(CC(=O)Nc2ccn(-c3ccccc3)n2)cc1 [Compound 45, 2-(4-methoxyphenyl)-N-(1-phenylpyrazol-3-yl)acetamide] | > 5000
25 | COc1cccc(CC(=O)Nc2ccn(-c3ccccc3)n2)c1 [Compound 46, 2-(3-methoxyphenyl)-N-(1-phenylpyrazol-3-yl)acetamide] | > 5000
26 | CCOc1ccc(CC(=O)Nc2ccn(-c3ccccc3)n2)cc1 [Compound 47, 2-(4-ethoxyphenyl)-N-(1-phenylpyrazol-3-yl)acetamide] | > 5000
27 | O=C(Cc1cccc(F)c1)Nc1ccn(-c2ccccc2)n1 [Compound 49, 2-(3-fluorophenyl)-N-(1-phenylpyrazol-3-yl)acetamide] | 1900
28 | O=C(Cc1cccc(Cl)c1)Nc1ccn(-c2ccccc2)n1 [Compound 50, 2-(3-chlorophenyl)-N-(1-phenylpyrazol-3-yl)acetamide] | > 5000
29 | O=C(Cc1cccc(C(F)(F)F)c1)Nc1ccn(-c2ccccc2)n1 [Compound 51, N-(1-phenylpyrazol-3-yl)-2-[3-(trifluoromethyl)phenyl]acetamide] | > 2000
30 | O=C(Cc1ccccc1C(F)(F)F)Nc1ccn(-c2ccccc2)n1 [Compound 52, N-(1-phenylpyrazol-3-yl)-2-[2-(trifluoromethyl)phenyl]acetamide] | 1100
31 | O=C(Cc1ccc(OC(F)(F)F)cc1)Nc1ccn(-c2ccccc2)n1 [Compound 53, N-(1-phenylpyrazol-3-yl)-2-[4-(trifluoromethoxy)phenyl]acetamide] | > 5000
32 | O=C(Cc1ccccc1OC(F)(F)F)Nc1ccn(-c2ccccc2)n1 [Compound 54, N-(1-phenylpyrazol-3-yl)-2-[2-(trifluoromethoxy)phenyl]acetamide] | > 5000
33 | Cc1ccc(C)c(CC(=O)Nc2ccn(-c3ccccc3)n2)c1 [Compound 55, 2-(2,5-dimethylphenyl)-N-(1-phenylpyrazol-3-yl)acetamide] | > 5000
34 | O=C(Cc1ccc(O)c(F)c1)Nc1ccn(-c2ccccc2)n1 [Compound 56, 2-(3-fluoro-4-hydroxy-phenyl)-N-(1-phenylpyrazol-3-yl)acetamide] | > 5000
35 | O=C(Cc1ccc(F)c(F)c1)Nc1ccn(-c2ccccc2)n1 [Compound 57, 2-(3,4-difluorophenyl)-N-(1-phenylpyrazol-3-yl)acetamide] | > 5000
36 | O=C(Cc1cc(F)cc(F)c1)Nc1ccn(-c2ccccc2)n1 [Compound 58, 2-(3,5-difluorophenyl)-N-(1-phenylpyrazol-3-yl)acetamide] | > 5000
37 | O=C(Cc1cc(F)ccc1F)Nc1ccn(-c2ccccc2)n1 [Compound 59, 2-(2,5-difluorophenyl)-N-(1-phenylpyrazol-3-yl)acetamide] | 250
38 | O=C(Cc1cccc(F)c1F)Nc1ccn(-c2ccccc2)n1 [Compound 60, 2-(2,3-difluorophenyl)-N-(1-phenylpyrazol-3-yl)acetamide] | > 2000
39 | O=C(Cc1c(F)cccc1F)Nc1ccn(-c2ccccc2)n1 [Compound 61, 2-(2,6-difluorophenyl)-N-(1-phenylpyrazol-3-yl)acetamide] | 65
